ChEMBL document CHEMBL3868595, “Plazomicin is effective in a non-human primate pneumonic plague model” (Bioorg Med Chem, 2016)

Assays:
[1] = tested on: Yersinia pestis; assay: Antibacterial activity against Yersinia pestis Colorado 92 infected in African green monkey B6436 model assessed as bacterial burden in tracheobronchial lymph nodes at 25 mg/kg, iv administered within 6 hrs post onset of sustained fever as 30 mins infusion for 5 days (reference value: 7.7 10^9CFU/g); assay type: functional, CO92, Lymph node
[2] = tested on: Yersinia pestis; assay: Antibacterial activity against Yersinia pestis Colorado 92 infected in African green monkey B6106 model assessed as bacterial burden in heart at 25 mg/kg, iv administered within 6 hrs post onset of sustained fever as 30 mins infusion for 5 days (reference value: 2.6 10^7CFU/g); assay type: functional, organism-based; conditions: CO92
[3] = tested on: Yersinia pestis; assay: Antibacterial activity against Yersinia pestis Colorado 92 infected in African green monkey C2083 model assessed as bacterial burden in blood at 12.5 mg/kg, iv administered within 6 hrs post onset of sustained fever as 30 mins infusion for 5 days (reference value: 1.2 10^7CFU/ml); assay type: functional, CO92
[4] = tested on: Yersinia pestis; assay: Antibacterial activity against Yersinia pestis Colorado 92 infected in African green monkey B6988 model assessed as bacterial burden in heart at 6.25 mg/kg, iv administered within 6 hrs post onset of sustained fever as 30 mins infusion for 5 days (reference value: 2.6 10^7CFU/g); assay type: functional, CO92
[5] = tested on: Yersinia pestis; assay: Antibacterial activity against Yersinia pestis Colorado 92 infected in African green monkey 8047 model assessed as bacterial burden in lung at 6.25 mg/kg, iv administered within 6 hrs post onset of sustained fever as 30 mins infusion for 10 days (reference value: 7.7 10^8CFU/g); assay type: functional, CO92
[6] = tested on: Yersinia pestis; assay: Antibacterial activity against Yersinia pestis Colorado 92 infected in African green monkey assessed as survival of monkey at 12.5 mg/kg, iv administered within 6 hrs post onset of sustained fever as 30 mins infusion for 5 days; assay type: functional; conditions: CO92, iv
[7] = tested on: African green monkey; assay: Toxicity in African green monkey B6140 model infected with Yersinia pestis Colorado 92 assessed as serum alanine aminotransferase level at 25 mg/kg, iv administered within 6 hrs post onset of sustained fever as 30 mins infusion for 10 days (reference value: 180 IU/L); assay type: organism-based; conditions: chlorocebus sabaeus, in vivo
[8] = tested on: Yersinia pestis; assay: Antibacterial activity against Yersinia pestis Colorado 92 infected in African green monkey B6889 model assessed as bacterial burden in blood at 6.25 mg/kg, iv administered within 6 hrs post onset of sustained fever as 30 mins infusion for 5 days (reference value: 1.2 10^7CFU/ml); assay type: functional, CO92
[9] = tested on: African green monkey; assay: Toxicity in African green monkey assessed as effect on serum creatinine level at 35 mg/kg administered as iv infusion twice daily for 7 consecutive days measured on day 1 by LC-MS/MS analysis; assay type: organism-based; conditions: chlorocebus sabaeus, in vivo
[10] = tested on: Yersinia pestis; assay: Antibacterial activity against Yersinia pestis Colorado 92 infected in African green monkey B6469 model assessed as bacterial burden in tracheobronchial lymph nodes at 25 mg/kg, iv administered within 6 hrs post onset of sustained fever as 30 mins infusion for 5 days (reference value: 7.7 10^9CFU/g); assay type: functional, organism-based; conditions: CO92, Lymph node
[11] = tested on: African green monkey; assay: Toxicity in African green monkey B6127 model infected with Yersinia pestis Colorado 92 assessed as inappetence at 25 mg/kg, iv administered within 6 hrs post onset of sustained fever as 30 mins infusion for 10 days; assay type: organism-based; conditions: chlorocebus sabaeus, in vivo
[12] = tested on: Yersinia pestis; assay: Antibacterial activity against Yersinia pestis Colorado 92 infected in African green monkey B6988 model assessed as bacterial burden in liver at 6.25 mg/kg, iv administered within 6 hrs post onset of sustained fever as 30 mins infusion for 5 days (reference value: 5.2 10^8CFU/g); assay type: functional, CO92
[13] = Toxicity in African green monkey 7972 model infected with Yersinia pestis Colorado 92 assessed as total white blood cell count at 25 mg/kg, iv administered within 6 hrs post onset of sustained fever as 30 mins infusion for 10 days (reference value: 6.9 10^3/microL); assay type: organism-based; conditions: chlorocebus aethiops, in vivo
[14] = tested on: African green monkey; assay: Toxicity in African green monkey B5994 model infected with Yersinia pestis Colorado 92 assessed as serum creatinine level at 25 mg/kg, iv administered within 6 hrs post onset of sustained fever as 30 mins infusion for 10 days (reference value: 0.6 mg/dl); assay type: organism-based; conditions: chlorocebus sabaeus, in vivo
[15] = tested on: Yersinia pestis; assay: Antibacterial activity against Yersinia pestis Colorado 92 infected in African green monkey B6415 model assessed as bacterial burden in liver at 25 mg/kg, iv administered within 6 hrs post onset of sustained fever as 30 mins infusion for 5 days (reference value: 5.2 10^8CFU/g); assay type: functional, CO92
[16] = tested on: African green monkey; assay: Toxicity in African green monkey B6408 model infected with Yersinia pestis Colorado 92 assessed as serum alanine aminotransferase level at 25 mg/kg, iv administered within 6 hrs post onset of sustained fever as 30 mins infusion for 10 days (reference value: 109 IU/L); assay type: organism-based; conditions: chlorocebus sabaeus, in vivo
[17] = tested on: Yersinia pestis; assay: Antibacterial activity against Yersinia pestis Colorado 92 infected in African green monkey assessed as survival of monkey at 6.25 mg/kg, iv administered within 6 hrs post onset of sustained fever as 30 mins infusion for 5 days; assay type: functional; conditions: CO92, iv
[18] = tested on: African green monkey; assay: Toxicity in African green monkey 8067 model infected with Yersinia pestis Colorado 92 assessed as blood urea nitrogen level at 25 mg/kg, iv administered within 6 hrs post onset of sustained fever as 30 mins infusion for 10 days (reference value: 13 mg/dl); assay type: organism-based; conditions: chlorocebus sabaeus, in vivo
[19] = tested on: African green monkey; assay: Toxicity in African green monkey B5994 model infected with Yersinia pestis Colorado 92 assessed as serum alanine aminotransferase level at 25 mg/kg, iv administered within 6 hrs post onset of sustained fever as 30 mins infusion for 10 days (reference value: 62 IU/L); assay type: organism-based; conditions: chlorocebus sabaeus, in vivo
[20] = tested on: African green monkey; assay: Toxicity in African green monkey assessed as effect on serum creatinine level at 25 mg/kg administered as iv infusion twice daily for 7 consecutive days measured on day 1 by LC-MS/MS analysis; assay type: organism-based; conditions: chlorocebus sabaeus, in vivo
[21] = tested on: Yersinia pestis; assay: Antibacterial activity against Yersinia pestis Colorado 92 infected in African green monkey B6436 model assessed as bacterial burden in blood at 25 mg/kg, iv administered within 6 hrs post onset of sustained fever as 30 mins infusion for 5 days (reference value: 1.2 10^7CFU/ml); assay type: functional, organism-based; conditions: CO92
[22] = tested on: Yersinia pestis; assay: Antibacterial activity against Yersinia pestis Colorado 92 infected in African green monkey B6872 model assessed as bacterial burden in blood at 25 mg/kg, iv administered within 6 hrs post onset of sustained fever as 30 mins infusion for 5 days (reference value: 1.2 10^7CFU/ml); assay type: functional, organism-based; conditions: CO92
[23] = tested on: Yersinia pestis; assay: Antibacterial activity against Yersinia pestis Colorado 92 infected in African green monkey B6988 model assessed as bacterial burden in lung at 6.25 mg/kg, iv administered within 6 hrs post onset of sustained fever as 30 mins infusion for 5 days (reference value: 7.7 10^8CFU/g); assay type: functional, CO92
[24] = tested on: African green monkey; assay: Toxicity in African green monkey 7337 model infected with Yersinia pestis Colorado 92 assessed as serum lactate dehydrogenase level at 25 mg/kg, iv administered within 6 hrs post onset of sustained fever as 30 mins infusion for 10 days (reference value: 310 IU/L); assay type: organism-based; conditions: chlorocebus sabaeus, in vivo
[25] = tested on: African green monkey; assay: Toxicity in African green monkey B6408 model infected with Yersinia pestis Colorado 92 assessed as blood urea nitrogen level at 25 mg/kg, iv administered within 6 hrs post onset of sustained fever as 30 mins infusion for 10 days (reference value: 22 mg/dl); assay type: organism-based; conditions: chlorocebus sabaeus, in vivo
[26] = tested on: Yersinia pestis; assay: Antibacterial activity against Yersinia pestis Colorado 92 infected in African green monkey C2149 model assessed as bacterial burden in liver at 6.25 mg/kg, iv administered within 6 hrs post onset of sustained fever as 30 mins infusion for 5 days (reference value: 5.2 10^8CFU/g); assay type: functional, CO92

Which results are given for `CN[C@@H]1[C@@H](O)[C@@H](O[C@@H]2[C@@H](O)[C@H](O[C@H]3OC(CNCCO)=CC[C@H]3N)[C@@H](N)C[C@H]2NC(=O)[C@@H](O)CCN)OC[C@]1(C)O` [PLAZOMICIN]?
Activity [1]: 30 CFU/g; Activity [2]: Below limit of detection; Activity [3]: 24 CFU/ml; Activity [4]: 4.5 ×10⁶ CFU/g; Activity [5]: 6.6 ×10⁹ CFU/g; survival at 12.5 mg/kg [6]: 33%; Activity [7]: 71 IU/L; Activity [8]: 93 CFU/ml; Activity [9]: 0.6 mg/dL; Activity [10]: Below limit of detection; Activity [11]: Toxic; Activity [12]: 17 CFU/g; Activity [13]: 7.6 ×10³ /uL; Activity [14]: 0.5 mg/dL; Activity [15]: 2 ×10⁶ CFU/g; Activity [16]: 94 IU/L; survival at 6.25 mg/kg [17]: 17%; Activity [18]: 21 mg/dL; Activity [19]: 46 IU/L; Activity [20]: 0.55 mg/dL; Activity [21]: Below limit of detection; Activity [22]: Below limit of detection; Activity [23]: 3.2 ×10⁸ CFU/g; Activity [24]: 469 IU/L; Activity [25]: 20 mg/dL; Activity [26]: 1 ×10⁶ CFU/g
